Consider 19 molecules from patent US7282593B2, “Withanamide and withanolide compositions and method of use thereof” (Board of Trustees of Michigan State University, priority 2003, dated 2007).

The first assay concerns lipid peroxidation in large unilamellar vesicles (LUVs). The experiment in a line: Inhibition of lipid peroxidation in large unilamellar vesicles (liposome) model system. To be noted: at 0.5 μg/mL; vs DMSO control at 21 min.
Method: Fluorescence intensity was monitored for 21 minutes at intervals of 3 minutes. The percentage of inhibition represented was calculated with respect to DMSO control at 21 min. The concentrations of compounds tested were 1-3, 5 and 9 at 1 μg/mL; 4, 6-8 at 0.5 μg/mL; 15 at 100 μg/mL; 16 at 50 μg/mL; 17 at 10 μg/mL. Commercial antioxidants BHA, BHT and TBHQ were tested at 1 μg/mL. Data represented indicates the mean ± one standard deviation (n=2).
Compounds tested were 10 and 13 at 100 μg/mL; 12 and 11 were at 10 and 50 μg/mL, respectively. Data represented indicates the mean ± one standard deviation (n=2).
The liposome suspension was prepared by mixing the phospholipid 1-stearoyl-2-linoleoyl-sn-glycero-3-phosphocoline (SLPC) and a fluorescence probe [3-[p-(6-phenyl)-1,3,5-hexatrienylph-enylpropionic acid (DPH-PA). The final assay volume was 2 mL and consisted HEPES (100 μL), 1M NaCl (200 μL), N2-sparged water (1.64 ml), test sample or DMSO (20 μL) and liposome suspension (20 μL). The peroxidation was initiated by the addition of 20 μl of FeCl2. […] The fluorescence was monitored at 0, 1, 3 and every 3 min up to 21 min using a Turner Model 450 Digital fluorometer. The decrease in fluorescence intensity over the time (21 min) indicated the rate of peroxidation. The percentage of lipid peroxidation was calculated with respect to DMSO solvent control. Stock solutions of the samples were prepared at 100 μg/ml and diluted further for the assay.
With Withanamide F [Compound 6], the “inhibition of lipid peroxidation” value is on record as 85%.
On to Withanamide G [Compound 7], for which the “inhibition of lipid peroxidation” value worked out at 82%.
Withanamide H [Compound 8]: the “inhibition of lipid peroxidation” value is 90%.

Staying with this assay, now noted: at 1 μg/mL; vs DMSO control at 21 min.
Turning to `COc1ccc(O)c(C(C)(C)C)c1` [BHA, butylated hydroxyanisole, reference compound], the “inhibition of lipid peroxidation” value is 80%.
Take `Cc1cc(C(C)(C)C)c(O)c(C(C)(C)C)c1` [BHT, butylated hydroxytoluene, reference compound]: the “inhibition of lipid peroxidation” value worked out at 81%.
Turning to `CC(C)(C)c1cc(O)ccc1O` [TBHQ, tert-butylhydroquinone, reference compound], the “inhibition of lipid peroxidation” value worked out at 85%.
As to Withanamide A [Compound 1], the “inhibition of lipid peroxidation” value is listed as 98%.
Withanamide B [Compound 2]: the “inhibition of lipid peroxidation” value is recorded as 93%.
As to Withanamide C [Compound 3], the “inhibition of lipid peroxidation” value amounted to 79%.
As for Withanamide D [Compound 4], the “inhibition of lipid peroxidation” value was 94%.
Turning to Withanamide E [Compound 5], the “inhibition of lipid peroxidation” value was determined as 81%.
Turning to Withanamide I [Compound 9], the “inhibition of lipid peroxidation” value is reported as 86%.

Still in this assay, the particulars now being: at 10 μg/mL; vs DMSO control at 21 min.
As to `CC1=C(C)C(=O)O[C@@H]([C@@H](C)[C@H]2CC[C@H]3[C@@H]4CC=C5C[C@@H](O[C@@H]6O[C@H](CO[C@@H]7O[C@H](CO)[C@@H](O)[C@H](O)[C@H]7O)[C@@H](O)[C@H](O)[C@H]6O)C[C@H](O)[C@]5(C)[C@H]4CC[C@]23C)C1` [Compound 12, Withanoside V], the “inhibition of lipid peroxidation” value amounted to 82%.
On the same count and under the same terms, to `Cl.NCCc1c[nH]c2ccc(O)cc12` [Compound 16, serotonine, reference compound] belongs 44%.

The same assay, now with this note: at 50 μg/mL; vs DMSO control at 21 min.
Take `CC1=C(C)C(=O)O[C@@H]([C@](C)(O)[C@H]2CC[C@H]3[C@@H]4CC=C5C[C@@H](O[C@@H]6O[C@H](CO[C@@H]7O[C@H](CO)[C@@H](O)[C@H](O)[C@H]7O)[C@@H](O)[C@H](O)[C@H]6O)C[C@H](O)[C@]5(C)[C@H]4CC[C@]23C)C1` [Compound 11, withanoside VI]: the “inhibition of lipid peroxidation” value was 86%.
Same read-out and setting: the result for `COc1ccc2[nH]cc(CCN)c2c1` [Compound 15, 5-methoxyserotonine, reference compound] reads 30%.

The assay is the same for the next values; noted with them: at 100 μg/mL; vs DMSO control at 21 min.
Regarding `CC1CC([C@](C)(O)C2CCC3C4CC=C5C[C@@H](OC6OC(COC7OC(CO)C(O)C(O)C7O)C(O)C(O)C6O)C[C@H](O)C5(C)C4CCC32C)OC(=O)C1C` (stereo partly drawn) [Compound 10, 23,24-Dihydrowithanolide VI], the “inhibition of lipid peroxidation” value came to 84%.
Still for that read-out and setting: to `CC1=C(CO)C(=O)O[C@@H]([C@@H](C)[C@H]2CC[C@H]3[C@@H]4CC=C5C[C@@H](O[C@@H]6O[C@H](CO[C@@H]7O[C@H](CO)[C@@H](O)[C@H](O)[C@H]7O)[C@@H](O)[C@H](O)[C@H]6O)C[C@H](O)[C@]5(C)[C@H]4CC[C@]23C)C1` [Compound 13, withanoside IV] belongs 25%.
As to `NCCc1c[nH]c2ccccc12` [Compound 14, tryptamine, reference compound], the “inhibition of lipid peroxidation” value turned out to be 40%.

The assay is the same for the next values; noted with them: at 10 ppm.
Take `CC1=C(C)C(=O)O[C@@H]([C@@H](C)[C@H]2CC[C@H]3[C@@H]4CC=C5C[C@@H](O[C@@H]6O[C@H](CO[C@@H]7O[C@H](CO)[C@@H](O)[C@H](O)[C@H]7O)[C@@H](O)[C@H](O)[C@H]6O)C[C@H](O)[C@]5(C)[C@H]4CC[C@]23C)C1` [Compound 12, Withanoside V]: the “inhibition of lipid peroxidation” value is reported as 82.5%.

The assay is the same for the next values; noted with them: at 50 ppm.
Regarding `CC1=C(C)C(=O)O[C@@H]([C@](C)(O)[C@H]2CC[C@H]3[C@@H]4CC=C5C[C@@H](O[C@@H]6O[C@H](CO[C@@H]7O[C@H](CO)[C@@H](O)[C@H](O)[C@H]7O)[C@@H](O)[C@H](O)[C@H]6O)C[C@H](O)[C@]5(C)[C@H]4CC[C@]23C)C1` [Compound 11, withanoside VI], the “lipid peroxidation inhibitory activity” value was found to be 86%.
